Reference: paper PMC7525093, “Bis-Quinolinium Cyclophane Blockers of SK Potassium Channels Are Antagonists of M3 Muscarinic Acetylcholine Receptors” (Frontiers in Pharmacology, 2020)

Experiments:
SK2 = biological target: SK2; set-up: method as in Benton D.C. et al., 2013; conditions: 125I-Apamin competition; ref Benton D.C. et al., 2013; read-out: Ki, SK2 channels; cited from earlier work
mouse trachea = assay: Isometric tracheal tension measurement (organ bath)
Procedure: Mice used in these studies were BALB/C mice from Jackson Labs. All animal procedures were reviewed and approved by the University of Texas Health Science Center at San Antonio Institutional Animal Care and Use Committee. For tracheal constriction studies, animals were deeply anesthetized with isoflurane and then sacrificed by cervical dislocation. Isometric tracheal contraction measurements were performed as previously described ([Semenov et al., 2012]). Trachea were removed and surrounding tissues dissected in ice-cold physiologic saline solution (PSS) consisting of 119 mM NaCl, 4.7 mM KCl, 2.0 mM CaCl2, 1.0 mM KH2PO4, 1.17 mM MgSO4, 18 mM NaHCO3, 0.026 mM EDTA, 11 mM glucose, and 12.5 mM sucrose. Trachea were cut below the pharynx and above the primary bronchus bifurcation. Two metal wires, attached to a force transducer and micrometer (Radnoti, LLC), were threaded into the lumen of the trachea. Trachea were placed into an oxygenated organ bath (95% O2, 5% CO2), at 37°C, pH 7.35 (after bubbling with 95% O2–5% CO2). Tracheal resting tension was readjusted to 1 gram over 1 h and then challenged with 67 mM potassium PSS with NaCl adjusted to 56.7 mM to maintain proper osmolarity (KPS). Trachea were challenged two or more times until reproducible contractile responses were achieved. All subsequent experimental drug responses were normalized to the KPS response. Bladder measurements were conducted in a similar manner as trachea with identical solutions. The bladder was excised and formed into a ring by cutting anterior and posterior portions before mounting on metal wires for force measurements. For the aorta preparation, the ascending thoracic aorta was excised and cut into 2–3 mm sections before mounting on wires for force measurements.

[1] = system: human primary bronchial smooth muscle cells stably transfected with the human M3 muscarinic receptor; assay: Cytosolic calcium imaging in human bronchial smooth muscle cells; type: cell-based
Procedure: (§1) TSM cells were placed on a coverslip in a 1 ml perfusion chamber on an inverted microscope and incubated with 20 μM Cal-520 AM dye (AAT Bioquest, Sunnyvale, California, USA) in 0.2% Pluronic F-127 and 1 mM probenecid in HBSS at room temperature for 30 min. The chamber was fitted with a top adaptor and coverslip (Warner Instruments, RC37WC) to establish a closed perfusion chamber. The cells were imaged at 20 second intervals using 488 nm excitation on a Nikon swept-field confocal microscope using slit-scan mode, 2×2 Binning, and 100 millisecond frames.
Due to the loss of functional muscarinic receptors in primary bronchial smooth muscle cells in culture, calcium imaging was performed in human primary bronchial smooth muscle cells (ScienCell, passage 3) stably transfected with the human M3 muscarinic receptor. Human M3 receptor transfected clones were stably selected with G418, and individual clones were expanded to a 10 cm dish and frozen into aliquots, and analyzed after a maximum of two additional passages.

[2] = system: rat primary tracheal smooth muscle cells; assay: Cytosolic calcium imaging in rat tracheal smooth muscle cells; type: cell-based
Procedure: Rat trachea were isolated as described above, except that a guillotine was used for sacrifice instead of cervical dislocation. The dorsal muscle layer was removed from the hyaline cartilage rings and minced into ~1-mm fragments in Ca^2+-free HEPES-buffered Krebs solution (140 mM NaCl, 4.7 mM KCl, 1.13 mM MgCl2, 10 mM HEPES, 10 mM glucose, pH 7.3). The tracheal smooth muscle (TSM) fragments were digested with 2.5 U/ml papain (MP Biomedicals) with 1 mg/ml BSA fraction V and 1 mg/ml dithiothreitol at 37°C on a rocking platform (250 rotations/min) for 20 min. After washing once with the Ca^2+-free Krebs solution the TSM fragments were digested with 12.5 U/ml of type VII collagenase (Sigma Chemical) for 10 min on a rocking platform at 37°C, washed and centrifuged (750 G for two min.) three times in Ca^2+-free Krebs-BSA solution and gently triturated up to 5 min to disburse single tracheal myocytes. TSM cells were stored on ice in Ca^2+-free Krebs-BSA solution and used the same day.
as §1, with “The cells were imaged at 20 second intervals using 488 nm excitation on a Nikon swept-field confocal microscope using slit-scan mode, 2×2 Binning, and 100 millisecond frames.” left out

[3] = biological target: T1, human P2Y1 purinergic receptor (Homo sapiens, UniProt P47900); assay: R-CEPIAer ER calcium assay, CHO cells co-transfected with P2Y1 receptor; type: cell-based; conditions: 5 μM UCL 1684, 1 μM ATP, read-out: Fractional inhibition of second ATP response
T1 construct: expressed in transfected cells; host or cells: CHO cells, transiently co-transfected with pCMV R-CEPIAer
T1 sequence (P47900 whole entry): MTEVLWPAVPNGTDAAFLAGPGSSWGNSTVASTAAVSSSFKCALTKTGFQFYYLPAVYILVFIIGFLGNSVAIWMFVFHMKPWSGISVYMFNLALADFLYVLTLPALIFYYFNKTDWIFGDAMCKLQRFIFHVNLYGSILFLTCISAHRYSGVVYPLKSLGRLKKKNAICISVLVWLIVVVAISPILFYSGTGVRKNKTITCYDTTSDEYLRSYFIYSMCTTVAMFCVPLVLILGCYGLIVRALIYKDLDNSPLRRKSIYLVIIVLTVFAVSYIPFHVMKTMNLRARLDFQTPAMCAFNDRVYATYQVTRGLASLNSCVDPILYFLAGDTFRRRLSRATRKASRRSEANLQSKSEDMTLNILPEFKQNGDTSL
Procedure: [Worded in the source for another target; used here, by the source, with some conditions changed.] The binding of antagonists to Gq-coupled receptors was determined by measuring IP3-mediated calcium depletion from the endoplasmic reticulum (ER). This was accomplished using CHO-K1 cells stably transfected with human M3 muscarinic acetylcholine receptor (CEM3000000, cDNA Resource Center, Bloomsburg University) and R-CEPIAer, a low affinity ER-targeted calcium indicator fluorescent protein ([Suzuki et al., 2014]). R-CEPIAer reporting of ER calcium concentration was assessed using 564 nm excitation light (>590 long-pass emission) at 20 second intervals on a Nikon swept-field confocal microscope using slit-scan mode, 2x2 Binning, and 100 millisecond frames. F/Fmax was fluorescence intensity normalized to maximal fluorescence intensity during the experiment. The response of cells to Gq-coupled receptor agonist were measured as the change in F/Fmax (ΔF/Fmax) from preagonist value to fluorescence minimum during agonist application (that occurs by IP3-mediated ER calcium depletion). […] Perfusion of each agonist application was for 2 min, while the antagonist overlapped and preceded the second agonist application by 3 min. […] IC50 was calculated by assaying fractional inhibition using a dose-response of antagonist concentrations (i.e. Figure 1D ). […]

SMILES: c1cc2cc(c1)C[n+]1ccc(c3ccccc31)NCc1ccc(cc1)CNc1cc[n+](c3ccccc13)C2 [UCL 1684, 6,12,19,20,25,26-Hexahydro-5,27:13,18:21,24-trietheno-11,7-metheno-7H-dibenzo [b,n] [1,5,12,16]tetraazacyclotricosine-5,13-diium dibromide]
- Ki (SK2): 1 nM
- Relaxation of precontracted trachea (mouse trachea): near complete relaxation
- Relaxation response of trachea, single dose (mouse trachea; 3.5 μM, 0.5 μM carbachol): 95.4 ± 2.4
- IC50 (mouse trachea; Mus musculus, read-out: IC50, relaxation of carbachol-precontracted trachea): 430 nM
- Reduction of carbachol-evoked ASM contractions (mouse trachea; carbachol-evoked): > 90%
- Washout needed to restore tracheal responses to cholinergic agonists (mouse trachea; data not shown): at least an hour of washout
- Calcium response (integral) to second carbachol relative to first ([1]; 3.5 μM UCL 1684, 0.5 μM carbachol, human BSMC): 0.38 ± 0.10
- activity at 3.5 µM ([1]; Homo sapiens, BSMC, read-out: CCH-evoked cytosolic calcium, % of control): 38%
- Calcium response (integral) to second carbachol relative to first ([2]; 3.5 μM UCL 1684, 0.5 μM carbachol, rat TSMC): 0.42 ± 0.04
- activity at 3.5 µM ([2]; Rattus norvegicus, read-out: CCH-evoked cytosolic calcium, % of control): 42%
- inhibition at 5 µM [3]: 6.7 ± 6%
